Experimental data published in patent US12077503B2, “Substituted cyclic amides and their use as herbicides” (FMC CORPORATION, priority 2015, dated 2024).

Experiments:
Assay type in all cases: in vivo
[1] = test system: barnyardgrass (Echinochloa crus-galli); experiment: Test G Pre-Emergence Protocol; settings: Echinochloa crus-galli, pre-emergence, 312 h, evaluated after 13 days; for pest or weed control at 15.625 g/ha: 15.625 g ai/ha, read-out: Barnyard grass damage rating (100=total damage to plant; 0=no damage to plant); for pest or weed control at 62.5 g/ha: 62.5 g ai/ha, 100=total damage to plant, 0=no damage to plant, read-out: plant damage rating, Barnyardgrass; for pest or weed control at 250 g/ha: 250 g ai/ha, read-out: Barnyardgrass damage rating (100=total damage to plant; 0=no damage to plant)
In short: (§1)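 Under a 24/16° C day/night regime with 14 h light and 65% humidity, sown pots were sprayed after one day with compound (15.625, 62.5 or 250 g/ha; 50:50 acetone/water, 0.5% Tween 20). Damage was assessed visually 13 days later, 0 to 100.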

corn (Zea mays) [2] = experiment: Test G Pre-Emergence Protocol; settings: Zea mays, pre-emergence, 312 h, evaluated after 13 days; for plant injury at 15.625 g/ha: 15.625 g ai/ha; for plant injury at 15.625 g/ha / plant injury at 250 g/ha: read-out: Corn damage rating (100=total damage to plant; 0=no damage to plant); for plant injury at 62.5 g/ha: 62.5 g ai/ha, 100=total damage to plant, 0=no damage to plant, read-out: plant damage rating, Corn; for plant injury at 250 g/ha: 250 g ai/ha
In short: as §1

[3] = test system: giant foxtail (Setaria faberi); experiment: Test G Pre-Emergence Protocol; settings: Setaria faberi, pre-emergence, 312 h, evaluated after 13 days; for pest or weed control at 15.625 g/ha: 15.625 g ai/ha; for pest or weed control at 15.625 g/ha / pest or weed control at 250 g/ha: read-out: Foxtail, Giant damage rating (100=total damage to plant; 0=no damage to plant); for pest or weed control at 62.5 g/ha: 62.5 g ai/ha, 100=total damage to plant, 0=no damage to plant, read-out: plant damage rating, Foxtail, Giant; for pest or weed control at 250 g/ha: 250 g ai/ha
In short: as §1

[4] = test system: ivy-leaved morning glory (Ipomoea hederacea); experiment: Test G Pre-Emergence Protocol; settings: Ipomoea, pre-emergence, 312 h, evaluated after 13 days; for pest or weed control at 15.625 g/ha: 15.625 g ai/ha, read-out: Morning-glory, Ivy-leaved damage rating (100=total damage to plant; 0=no damage to plant); for pest or weed control at 62.5 g/ha: 62.5 g ai/ha, 100=total damage to plant, 0=no damage to plant, read-out: plant damage rating, Morningglory, Ivy-leaved; for pest or weed control at 250 g/ha: 250 g ai/ha, read-out: Morningglory, Ivy-leaved damage rating (100=total damage to plant; 0=no damage to plant)
In short: as §1

[5] = test system: redroot pigweed (Amaranthus retroflexus); experiment: Test G Pre-Emergence Protocol; settings: Amaranthus retroflexus, pre-emergence, 312 h, evaluated after 13 days; for pest or weed control at 15.625 g/ha: 15.625 g ai/ha; for pest or weed control at 15.625 g/ha / pest or weed control at 250 g/ha: read-out: Pigweed, Redroot damage rating (100=total damage to plant; 0=no damage to plant); for pest or weed control at 62.5 g/ha: 62.5 g ai/ha, 100=total damage to plant, 0=no damage to plant, read-out: plant damage rating, Pigweed, Redroot; for pest or weed control at 250 g/ha: 250 g ai/ha
In short: as §1

[6] = test system: velvetleaf (Abutilon theophrasti); experiment: Test G Pre-Emergence Protocol; settings: Abutilon theophrasti, pre-emergence, 312 h, evaluated after 13 days; for pest or weed control at 15.625 g/ha: 15.625 g ai/ha; for pest or weed control at 15.625 g/ha / pest or weed control at 250 g/ha: read-out: Velvetleaf damage rating (100=total damage to plant; 0=no damage to plant); for pest or weed control at 62.5 g/ha: 62.5 g ai/ha, 100=total damage to plant, 0=no damage to plant, read-out: plant damage rating, Velvetleaf; for pest or weed control at 250 g/ha: 250 g ai/ha
In short: as §1

[7] = test system: barnyardgrass (Echinochloa crus-galli); experiment: Test G Post-Emergence Protocol; settings: Echinochloa crus-galli, post-emergence, 312 h; for pest or weed control at 15.625 g/ha: 15.625 g ai/ha, evaluated after 13 days (100=total damage to plant; 0=no damage to plant), read-out: Barnyardgrass damage rating; for pest or weed control at 62.5 g/ha: 62.5 g ai/ha, read-out: Barnyardgrass damage rating (100=total damage to plant; 0=no damage to plant); for pest or weed control at 62.5 g/ha / pest or weed control at 250 g/ha: evaluated after 13 days; for pest or weed control at 250 g/ha: 250 g ai/ha, read-out: damage to plant, Barnyardgrass (100=total damage to plant; 0=no damage to plant)
In short: (§2)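 Damage was rated 13 days after treatment from 0 (none) to 100 (plant killed). Compound was applied as a spray at 15.625, 62.5 or 250 g/ha in 50:50 acetone/water containing 0.5% Tween 20, onto 8-day-old potted plants kept in a glasshouse (24/16 °C, 14 h light, 65% humidity).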

corn (Zea mays) [8] = experiment: Test G Post-Emergence Protocol; settings: Zea mays, post-emergence, 312 h; for plant injury at 15.625 g/ha: 15.625 g ai/ha, evaluated after 13 days (100=total damage to plant; 0=no damage to plant), read-out: Corn damage rating; for plant injury at 62.5 g/ha: 62.5 g ai/ha, read-out: Corn damage rating (100=total damage to plant; 0=no damage to plant); for plant injury at 62.5 g/ha / plant injury at 250 g/ha: evaluated after 13 days; for plant injury at 250 g/ha: 250 g ai/ha, read-out: damage to plant, Corn (100=total damage to plant; 0=no damage to plant)
In short: as §2

[9] = test system: giant foxtail (Setaria faberi); experiment: Test G Post-Emergence Protocol; settings: Setaria faberi, post-emergence, 312 h; for pest or weed control at 15.625 g/ha: 15.625 g ai/ha, evaluated after 13 days (100=total damage to plant; 0=no damage to plant), read-out: Foxtail, Giant damage rating; for pest or weed control at 62.5 g/ha: 62.5 g ai/ha, read-out: Foxtail, Giant damage rating (100=total damage to plant; 0=no damage to plant); for pest or weed control at 62.5 g/ha / pest or weed control at 250 g/ha: evaluated after 13 days; for pest or weed control at 250 g/ha: 250 g ai/ha, read-out: damage to plant, Foxtail, Giant (100=total damage to plant; 0=no damage to plant)
In short: as §2

[10] = test system: ivy-leaved morning glory (Ipomoea hederacea); experiment: Test G Post-Emergence Protocol; settings: Ipomoea, post-emergence, 312 h; for pest or weed control at 15.625 g/ha: 15.625 g ai/ha, evaluated after 13 days (100=total damage to plant; 0=no damage to plant), read-out: Morningglory, Ivy-leaved damage rating; for pest or weed control at 62.5 g/ha: 62.5 g ai/ha, read-out: Morningglory, Ivy-leaved damage rating (100=total damage to plant; 0=no damage to plant); for pest or weed control at 62.5 g/ha / pest or weed control at 250 g/ha: evaluated after 13 days; for pest or weed control at 250 g/ha: 250 g ai/ha, read-out: damage to plant, Morningglory, Ivy-leaved (100=total damage to plant; 0=no damage to plant)
In short: as §2

[11] = test system: redroot pigweed (Amaranthus retroflexus); experiment: Test G Post-Emergence Protocol; settings: Amaranthus retroflexus, post-emergence, 312 h; for pest or weed control at 15.625 g/ha: 15.625 g ai/ha, evaluated after 13 days (100=total damage to plant; 0=no damage to plant), read-out: Pigweed, Redroot damage rating; for pest or weed control at 62.5 g/ha: 62.5 g ai/ha, read-out: Pigweed, Redroot damage rating (100=total damage to plant; 0=no damage to plant); for pest or weed control at 62.5 g/ha / pest or weed control at 250 g/ha: evaluated after 13 days; for pest or weed control at 250 g/ha: 250 g ai/ha, read-out: damage to plant, Pigweed, Redroot (100=total damage to plant; 0=no damage to plant)
In short: as §2

[12] = test system: velvetleaf (Abutilon theophrasti); experiment: Test G Post-Emergence Protocol; settings: Abutilon theophrasti, post-emergence, 312 h; for pest or weed control at 15.625 g/ha: 15.625 g ai/ha, evaluated after 13 days (100=total damage to plant; 0=no damage to plant), read-out: Velvetleaf damage rating; for pest or weed control at 62.5 g/ha: 62.5 g ai/ha, read-out: Velvetleaf damage rating (100=total damage to plant; 0=no damage to plant); for pest or weed control at 62.5 g/ha / pest or weed control at 250 g/ha: evaluated after 13 days; for pest or weed control at 250 g/ha: 250 g ai/ha, read-out: damage to plant, Velvetleaf (100=total damage to plant; 0=no damage to plant)
In short: as §2

SMILES | pest or weed control at 15.625 g/ha [1] | pest or weed control at 62.5 g/ha [1] | pest or weed control at 250 g/ha [1] | plant injury at 15.625 g/ha (corn (Zea mays) [2]) | plant injury at 62.5 g/ha (corn (Zea mays) [2]) | plant injury at 250 g/ha (corn (Zea mays) [2]) | pest or weed control at 15.625 g/ha [3] | pest or weed control at 62.5 g/ha [3] | pest or weed control at 250 g/ha [3] | pest or weed control at 15.625 g/ha [4] | pest or weed control at 62.5 g/ha [4] | pest or weed control at 250 g/ha [4] | pest or weed control at 15.625 g/ha [5] | pest or weed control at 62.5 g/ha [5] | pest or weed control at 250 g/ha [5] | pest or weed control at 15.625 g/ha [6] | pest or weed control at 62.5 g/ha [6] | pest or weed control at 250 g/ha [6] | pest or weed control at 15.625 g/ha [7] | pest or weed control at 62.5 g/ha [7] | further results
CN1C[C@@H](c2ccc(C(F)(F)F)cc2)[C@H](C(=O)Nc2ccc(Cl)cc2F)C1=O (racemic) [Compound 1602] | 0% | 0% | 40% | 0% | 0% | 0% | 0% | 30% | 70% | 0% | 0% | 0% | 0% | 30% | 40% | 0% | 0% | 10% | 0% | 20% | pest or weed control at 250 g/ha [7]: 40%; plant injury at 15.625 g/ha (corn (Zea mays) [8]): 0%; plant injury at 62.5 g/ha (corn (Zea mays) [8]): 0%; plant injury at 250 g/ha (corn (Zea mays) [8]): 20%; pest or weed control at 15.625 g/ha [9]: 0%; pest or weed control at 62.5 g/ha [9]: 60%; pest or weed control at 250 g/ha [9]: 80%; pest or weed control at 15.625 g/ha [10]: 10%; pest or weed control at 62.5 g/ha [10]: 50%; pest or weed control at 250 g/ha [10]: 50%; pest or weed control at 15.625 g/ha [11]: 0%; pest or weed control at 62.5 g/ha [11]: 50%; pest or weed control at 250 g/ha [11]: 70%; pest or weed control at 15.625 g/ha [12]: 0%; pest or weed control at 62.5 g/ha [12]: 20%; pest or weed control at 250 g/ha [12]: 40%
CN1C[C@H](c2cccc3c2OC(F)(F)O3)[C@@H](C(=O)Nc2ccccc2F)C1=O (racemic) [Compound 1465] | 0% | 20% | 70% | 0% | 0% | 0% | 30% | 70% | 90% | 0% | 0% | 0% | 0% | 0% | 0% | 0% | 0% | 0% | 0% | 10% | pest or weed control at 250 g/ha [7]: 20%; plant injury at 15.625 g/ha (corn (Zea mays) [8]): 10%; plant injury at 62.5 g/ha (corn (Zea mays) [8]): 10%; plant injury at 250 g/ha (corn (Zea mays) [8]): 10%; pest or weed control at 15.625 g/ha [9]: 0%; pest or weed control at 62.5 g/ha [9]: 60%; pest or weed control at 250 g/ha [9]: 70%; pest or weed control at 15.625 g/ha [10]: 0%; pest or weed control at 62.5 g/ha [10]: 0%; pest or weed control at 250 g/ha [10]: 20%; pest or weed control at 15.625 g/ha [11]: 10%; pest or weed control at 62.5 g/ha [11]: 0%; pest or weed control at 250 g/ha [11]: 0%; pest or weed control at 15.625 g/ha [12]: 10%; pest or weed control at 62.5 g/ha [12]: 0%; pest or weed control at 250 g/ha [12]: 10%
